Laboratory results: US8101732B2, “Methods of producing validamycin A analogs and uses thereof” (State of Oregon acting by and through the State Board of …, priority 2008, dated 2012)

System: Pellicularia sasakii (=R. solani)
Experiment: Fungal growth inhibitory assay (agar plug assay)
Type: cell-based
Conditions: growth monitored after two days, FIG. 4
Protocol: Fungal growth inhibitory assay of 1,1′-bis-valienamine (3) and validienamycin (4): 1% agar (14 mL) was mixed with the compounds (dissolved in 1 mL H2O) and then plated into Petri dishes. Discs of PDA agar with mycelia of Pellicularia sasakii were placed in the center of the above plates as the indicator strain for bioassay of the compounds. The plates were incubated at 30° C. for 2 days.
Antifungal activity assays of compounds 3 and 4 were tested against Pellicularia sasakii (=R. solani) using an agar plug assay (Minagawa et al., Chembiochem 8: 632-641, 2007). Agar plugs with diameter of 5 mm and containing P. sasakii mycelia were placed in the center of agar plates that contain each compound and the growth of the pathogen was monitored after two days. Active compounds were determined based on their ability to inhibit the expansion of the fungal mycelia on the Petri dishes.

Structure (SMILES) | fungistatic activity (inhibition of expansion of the fungal mycelia) (lower concentration (0.02 mM) in agar plate) | fungistatic activity (inhibition of expansion of the fungal mycelia) (0.2 mM concentration in agar plate)
OCC1=C[C@H](N[C@H]2C[C@H](CO)[C@@H](O[C@@H]3OC(CO)[C@@H](O)C(O)[C@H]3O)[C@H](O)[C@H]2O)[C@H](O)[C@@H](O)[C@@H]1O (some centres unmarked) [Compound 1, validamycin A] | the most active compound among those evaluated | 
OCC1=C[C@H](N[C@H]2C=C(CO)[C@@H](O)[C@H](O)[C@H]2O)[C@H](O)[C@@H](O)[C@@H]1O [Compound 4, validienamycin] |  | comparable fungistatic activity with 1 and 2
